From ChEMBL document CHEMBL1127646, “Mechanism-based isocoumarin inhibitors for blood coagulation serine proteases. Effect of the 7-substituent in 7-amino-4-chloro-3-(isothioureidoalkoxy)isocoumarins on inhibitory and anticoagulant potency” (J Med Chem, 1994)
Peptide text beside a SMILES is read from it. * marks the point of attachment. Dansyl = CN(C)c1cccc2c(S(=O)(=O)*)cccc12; CH2Cl = ClC*

Key:
[1] = Hydrolysis half life (t1/2); type: ADME
Prothrombin (Bos taurus) = Prothrombin (Bos taurus) (UniProt P00735); assay: Inhibition of bovine thrombin (inhibitor concentration 1.2-54 uM)
[2] = target: Prothrombin (Homo sapiens) (UniProt P00734); assay: Inhibition of human thrombin (inhibitor concentration 1.2-54 uM)
[3] = target: T1, Coagulation factor VII (Homo sapiens) (UniProt P08709); assay: Inhibition of human coagulation factor VII at 7.2-44 uM
T1 sequence (whole entry): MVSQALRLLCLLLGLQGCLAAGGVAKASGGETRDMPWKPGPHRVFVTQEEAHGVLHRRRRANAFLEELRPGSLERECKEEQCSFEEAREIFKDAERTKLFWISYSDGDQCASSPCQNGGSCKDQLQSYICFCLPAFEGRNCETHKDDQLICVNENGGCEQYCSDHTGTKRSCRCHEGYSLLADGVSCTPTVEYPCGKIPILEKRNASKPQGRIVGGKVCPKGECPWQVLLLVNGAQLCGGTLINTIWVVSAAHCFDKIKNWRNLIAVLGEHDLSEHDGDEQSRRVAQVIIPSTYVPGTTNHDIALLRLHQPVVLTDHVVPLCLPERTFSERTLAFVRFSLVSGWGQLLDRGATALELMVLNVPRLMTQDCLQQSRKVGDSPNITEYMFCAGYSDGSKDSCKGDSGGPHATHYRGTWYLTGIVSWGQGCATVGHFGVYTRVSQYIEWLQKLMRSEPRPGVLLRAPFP

[4] = target: T2, Coagulation factor XII (Homo sapiens) (UniProt P00748); assay: Inhibition of human coagulation factor XII (inhibitor concentration were 3.6-4.9 uM)
T2 sequence (whole entry): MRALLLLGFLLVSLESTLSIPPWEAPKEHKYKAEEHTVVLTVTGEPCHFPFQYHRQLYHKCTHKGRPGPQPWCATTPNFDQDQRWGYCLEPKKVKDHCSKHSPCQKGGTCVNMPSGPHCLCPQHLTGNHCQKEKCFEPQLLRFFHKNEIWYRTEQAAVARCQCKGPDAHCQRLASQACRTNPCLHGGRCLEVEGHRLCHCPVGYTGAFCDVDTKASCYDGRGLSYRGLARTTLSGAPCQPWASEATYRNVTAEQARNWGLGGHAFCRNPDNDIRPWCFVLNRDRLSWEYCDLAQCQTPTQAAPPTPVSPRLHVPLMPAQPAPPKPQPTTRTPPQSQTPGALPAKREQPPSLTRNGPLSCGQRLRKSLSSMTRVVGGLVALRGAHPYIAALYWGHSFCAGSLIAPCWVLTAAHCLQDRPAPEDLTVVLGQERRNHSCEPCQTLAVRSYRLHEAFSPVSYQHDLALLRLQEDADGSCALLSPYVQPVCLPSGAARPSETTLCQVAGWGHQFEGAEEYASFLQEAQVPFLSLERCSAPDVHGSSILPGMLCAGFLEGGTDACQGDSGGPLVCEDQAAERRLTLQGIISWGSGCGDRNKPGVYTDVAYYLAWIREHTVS

[5] = target: Coagulation factor X (Homo sapiens) (UniProt P00742); assay: Inhibition of human factor Xa (inhibitor concentration were 3.6-44 uM)
Coagulation factor X (Homo sapiens), sequence (P00742 41-179 limits assumed): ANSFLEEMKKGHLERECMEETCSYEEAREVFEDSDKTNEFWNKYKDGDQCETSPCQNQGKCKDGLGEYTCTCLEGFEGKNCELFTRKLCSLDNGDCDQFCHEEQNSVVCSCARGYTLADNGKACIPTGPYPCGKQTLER
Coagulation factor X (Homo sapiens), sequence (P00742 235-488 limits assumed): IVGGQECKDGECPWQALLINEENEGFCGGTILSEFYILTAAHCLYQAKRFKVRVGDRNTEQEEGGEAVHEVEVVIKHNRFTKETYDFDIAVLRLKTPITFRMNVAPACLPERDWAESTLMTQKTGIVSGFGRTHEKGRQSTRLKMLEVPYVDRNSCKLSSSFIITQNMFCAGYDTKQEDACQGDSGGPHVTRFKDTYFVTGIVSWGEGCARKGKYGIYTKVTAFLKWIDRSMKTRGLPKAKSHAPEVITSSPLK

[6] = target: Coagulation factor IX (Homo sapiens) (UniProt P00740); assay: Inhibition of porcine factor IXa at 8.3-82 uM; conditions: Sus scrofa, target entry is the homologue from another species
[7] = target: Coagulation factor XI (Homo sapiens) (UniProt P03951); assay: Compound was evaluated for inhibition of enzyme human coagulation factor XI (inhibitor concentration were 0.7-0.8 uM)
Coagulation factor XI (Homo sapiens), sequence (P03951 19-387 limits assumed): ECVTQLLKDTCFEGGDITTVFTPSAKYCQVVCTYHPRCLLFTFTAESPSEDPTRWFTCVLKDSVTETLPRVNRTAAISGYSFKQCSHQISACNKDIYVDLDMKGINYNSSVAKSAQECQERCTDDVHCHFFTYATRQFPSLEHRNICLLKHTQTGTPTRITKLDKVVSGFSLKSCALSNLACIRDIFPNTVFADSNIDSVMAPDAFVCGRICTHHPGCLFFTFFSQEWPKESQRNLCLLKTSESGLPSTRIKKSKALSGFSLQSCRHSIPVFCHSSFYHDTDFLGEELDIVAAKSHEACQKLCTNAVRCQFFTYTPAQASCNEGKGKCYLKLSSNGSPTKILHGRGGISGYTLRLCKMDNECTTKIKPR
Coagulation factor XI (Homo sapiens), sequence (P03951 388-625 limits assumed): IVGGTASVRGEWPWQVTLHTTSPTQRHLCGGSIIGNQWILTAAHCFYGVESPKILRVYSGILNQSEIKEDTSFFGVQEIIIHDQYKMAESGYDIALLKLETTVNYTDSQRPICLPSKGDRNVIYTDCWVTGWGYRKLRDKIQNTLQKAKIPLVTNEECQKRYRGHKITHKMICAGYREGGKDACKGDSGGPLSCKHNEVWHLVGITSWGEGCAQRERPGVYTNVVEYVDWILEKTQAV

[8] = Anticoagulant activity was determined in Ortho-activated thrombofax (APTT) assay at a dose 32 uM in pig plasma; type: functional, Sus scrofa
[9] = Anticoagulant activity was determined in Ortho-activated thrombofax (APTT) assay at a dose 9.4 uM in human dead plasma; type: functional
[10] = target: T3, Coagulation factor III (Sus scrofa) (UniProt Q6RCS8); assay: Anticoagulant activity in PT assay at a dose 32 uM
T3 sequence (whole entry): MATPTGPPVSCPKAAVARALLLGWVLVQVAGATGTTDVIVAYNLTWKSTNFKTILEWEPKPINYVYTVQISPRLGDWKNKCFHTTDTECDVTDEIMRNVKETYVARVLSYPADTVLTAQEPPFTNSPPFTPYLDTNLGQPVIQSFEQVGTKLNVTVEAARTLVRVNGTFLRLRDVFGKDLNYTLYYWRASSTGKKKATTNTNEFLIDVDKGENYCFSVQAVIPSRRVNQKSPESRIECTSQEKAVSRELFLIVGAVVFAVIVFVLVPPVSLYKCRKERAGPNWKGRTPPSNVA

[11] = Anticoagulant activity was determined in Ortho-activated thrombofax (APTT) assay at a dose 31 uM in human dead plasma; type: functional
[12] = target: Tissue factor (Homo sapiens) (UniProt P13726); assay: Anticoagulant activity in PT assay at a dose of 31 uM
Tissue factor (Homo sapiens), sequence (P13726 whole entry): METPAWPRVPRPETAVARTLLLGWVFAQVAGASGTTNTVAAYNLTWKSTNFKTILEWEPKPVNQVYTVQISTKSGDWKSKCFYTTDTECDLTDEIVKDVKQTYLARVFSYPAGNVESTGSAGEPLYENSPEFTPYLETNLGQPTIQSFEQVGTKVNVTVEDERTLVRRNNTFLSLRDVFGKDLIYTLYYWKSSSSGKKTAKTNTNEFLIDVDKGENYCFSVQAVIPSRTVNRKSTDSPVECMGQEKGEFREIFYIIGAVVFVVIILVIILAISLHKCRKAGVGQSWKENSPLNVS

[13] = Anticoagulant activity was determined in Ortho-activated thrombofax (APTT) assay at a dose 32 uM in human dead plasma; type: functional
[14] = target: T3, Coagulation factor III (Sus scrofa); assay: Anticoagulant activity in PT assay at a dose 16 uM
[15] = Anticoagulant activity was determined in Ortho-activated thrombofax (APTT) assay at a dose 16 uM in pig plasma; type: functional, Sus scrofa
[16] = target: T3, Coagulation factor III (Sus scrofa); assay: Anticoagulant activity in PT assay at a dose of 32 uM

| SMILES | half-life [1] | K obs / 1 (Prothrombin (Bos taurus)) | K obs / 1 [2] | K obs / 1 [3] | K obs / 1 [4] | K obs / 1 [5] | K obs / 1 [6] | also measured |
| --- | --- | --- | --- | --- | --- | --- | --- | --- |
| N=C(N)SCCOc1oc(=O)c2cc(NC(=O)[C@H](N)Cc3ccccc3)ccc2c1Cl | 21 min | 1280 M⁻¹ s⁻¹ | 1340 M⁻¹ s⁻¹ | 4010 M⁻¹ s⁻¹ | 107000 M⁻¹ s⁻¹ | 3770 M⁻¹ s⁻¹ | 1590 M⁻¹ s⁻¹ |  |
| N=C(N)SCCCOc1oc(=O)c2cc(NC(=O)[C@H](N)Cc3ccccc3)ccc2c1Cl | 46 min | 400 M⁻¹ s⁻¹ | 470 M⁻¹ s⁻¹ |  |  |  |  |  |
| N=C(N)SCCCOc1oc(=O)c2cc(NC(=O)[C@@H](N)Cc3ccccc3)ccc2c1Cl | 42 min | 180 M⁻¹ s⁻¹ | 220 M⁻¹ s⁻¹ |  |  |  |  |  |
| N=C(N)SCCCOc1oc(=O)c2cc(NC(=O)Cc3ccccc3)ccc2c1Cl | 61 min | 600 M⁻¹ s⁻¹ | 610 M⁻¹ s⁻¹ | 610 M⁻¹ s⁻¹ | 610 M⁻¹ s⁻¹ | 610 M⁻¹ s⁻¹ | 610 M⁻¹ s⁻¹ | K obs / 1 [7]: 610 M⁻¹ s⁻¹ |
| CC(C)(C)OC(=O)N[C@@H](Cc1ccccc1)C(=O)Nc1ccc2c(Cl)c(OCCCSC(=N)N)oc(=O)c2c1 | 51 min | 190 M⁻¹ s⁻¹ | 230 M⁻¹ s⁻¹ |  |  |  |  |  |
| C[C@H](N)C(=O)N[C@@H](C)C(=O)Nc1ccc2c(Cl)c(OCCSC(=N)N)oc(=O)c2c1 |  | 1070 M⁻¹ s⁻¹ | 880 M⁻¹ s⁻¹ |  |  | 1490 M⁻¹ s⁻¹ |  |  |
| CCOc1oc(=O)c2cc(NC(=N)N)ccc2c1Cl |  | 55000 M⁻¹ s⁻¹ |  | 2200 M⁻¹ s⁻¹ | 22000 M⁻¹ s⁻¹ | 11000 M⁻¹ s⁻¹ | 2850 M⁻¹ s⁻¹ | K obs / 1 [7]: 60000 M⁻¹ s⁻¹ |
| CN(C)c1cccc2c(S(=O)(=O)N[C@@H](CCC(=O)O)C(=O)NCC(=O)N[C@@H](CCCN=C(N)N)C(=O)CCl)cccc12 (Dansyl-Glu-Gly-Arg-CH2Cl) |  |  |  | 20 M⁻¹ s⁻¹ |  |  | 180 M⁻¹ s⁻¹ |  |
| C[C@H](NC(=O)Nc1ccc2c(Cl)c(OCCSC(=N)N)oc(=O)c2c1)c1ccccc1 | 56 min | 41300 M⁻¹ s⁻¹ | 21000 M⁻¹ s⁻¹ | 1830 M⁻¹ s⁻¹ |  |  | 3980 M⁻¹ s⁻¹ | APTT [8]: >120 s; APTT [9]: 57.6 s; PT [10]: 30 s; APTT [11]: 111.2 s |
| N=C(N)SCCOc1oc(=O)c2cc(NC(=O)CCc3ccccc3)ccc2c1Cl | 39 min |  | 2150 M⁻¹ s⁻¹ |  |  |  |  | PT [12]: 24.4 s; APTT [9]: 52.4 s; APTT [11]: 76.2 s; APTT [13]: 140 s |
| N=C(N)SCCOc1oc(=O)c2cc(NC(=O)Nc3ccccc3)ccc2c1Cl | 108 min | 25000 M⁻¹ s⁻¹ | 22400 M⁻¹ s⁻¹ | 3140 M⁻¹ s⁻¹ | 50000 M⁻¹ s⁻¹ | 4740 M⁻¹ s⁻¹ | 1790 M⁻¹ s⁻¹ | PT [14]: 28.5 s; APTT [9]: 47.7 s; PT [10]: 58.3 s; APTT [11]: 87.3 s; APTT [15]: >120 s; K obs / 1 [7]: 104000 M⁻¹ s⁻¹ |
| N=C(N)SCCOc1oc(=O)c2cc(NC(=O)[C@@H](N)Cc3ccccc3)ccc2c1Cl | 18 min | 4240 M⁻¹ s⁻¹ | 3070 M⁻¹ s⁻¹ |  | 82000 M⁻¹ s⁻¹ | 3070 M⁻¹ s⁻¹ |  |  |
| CC(=O)CCC(=O)Nc1ccc2c(Cl)c(OCCSC(=N)N)oc(=O)c2c1 | 28 min |  | 1770 M⁻¹ s⁻¹ |  |  |  |  | PT [12]: 42.5 s; APTT [11]: >140 s |
| N=C(N)SCCCOc1oc(=O)c2cc(NC(=O)CCc3ccccc3)ccc2c1Cl | 66 min | 820 M⁻¹ s⁻¹ | 630 M⁻¹ s⁻¹ |  |  |  |  |  |
| N=C(N)SCCCOc1oc(=O)c2cc(N)ccc2c1Cl | 90 min | 630 M⁻¹ s⁻¹ | 760 M⁻¹ s⁻¹ | 430 M⁻¹ s⁻¹ | 6200 M⁻¹ s⁻¹ | 60 M⁻¹ s⁻¹ | 80 M⁻¹ s⁻¹ | K obs / 1 [7]: 22000 M⁻¹ s⁻¹ |
| CC(C)(C)OC(=O)N[C@@H](Cc1ccccc1)C(=O)Nc1ccc2c(Cl)c(OCCSC(=N)N)oc(=O)c2c1 | 39 min | 1040 M⁻¹ s⁻¹ | 1090 M⁻¹ s⁻¹ |  |  |  |  |  |
| CC(C)(C)OC(=O)N[C@H](Cc1ccccc1)C(=O)Nc1ccc2c(Cl)c(OCCSC(=N)N)oc(=O)c2c1 | 42 min | 1090 M⁻¹ s⁻¹ | 1140 M⁻¹ s⁻¹ |  |  | 1620 M⁻¹ s⁻¹ |  |  |
| N=C(N)SCCCOc1oc(=O)c2cc(NC(=O)NCc3ccccc3)ccc2c1Cl | 148 min | 420 M⁻¹ s⁻¹ | 700 M⁻¹ s⁻¹ |  |  |  |  |  |
| N=C(N)SCCOc1oc(=O)c2cc(NC(=O)NC(c3ccccc3)c3ccccc3)ccc2c1Cl | 168 min |  | 7050 M⁻¹ s⁻¹ |  |  |  |  | PT [12]: 18.4 s; APTT [11]: 121 s |
| C[C@@H](NC(=O)Nc1ccc2c(Cl)c(OCCSC(=N)N)oc(=O)c2c1)c1ccccc1 | 62 min | 29500 M⁻¹ s⁻¹ | 12000 M⁻¹ s⁻¹ |  |  |  |  | APTT [8]: >120 s; PT [16]: 26.2 s |
| N=C(N)SCCOc1oc(=O)c2cc(NC(=O)Nc3cccc4ccccc34)ccc2c1Cl |  | 17500 M⁻¹ s⁻¹ | 5800 M⁻¹ s⁻¹ |  |  |  |  |  |
| C[C@H](NC(=O)OC(C)(C)C)C(=O)N[C@@H](C)C(=O)Nc1ccc2c(Cl)c(OCCSC(=N)N)oc(=O)c2c1 | 40 min | 1530 M⁻¹ s⁻¹ | 970 M⁻¹ s⁻¹ |  |  |  |  |  |
| CC(C)(C)OC(=O)N[C@H](Cc1ccccc1)C(=O)Nc1ccc2c(Cl)c(OCCCSC(=N)N)oc(=O)c2c1 | 55 min | 330 M⁻¹ s⁻¹ | 520 M⁻¹ s⁻¹ |  |  |  |  |  |
| N=C(N)SCCCOc1oc(=O)c2ccccc2c1Cl |  | 1400 M⁻¹ s⁻¹ |  | 450 M⁻¹ s⁻¹ | 27000 M⁻¹ s⁻¹ |  | 90 M⁻¹ s⁻¹ | K obs / 1 [7]: 47000 M⁻¹ s⁻¹ |
| CC(=O)Nc1ccc2c(Cl)c(OCCCSC(=N)N)oc(=O)c2c1 | 68 min | 420 M⁻¹ s⁻¹ | 310 M⁻¹ s⁻¹ |  |  |  |  |  |
| O=c1oc(Cl)c(Cl)c2ccccc12 |  | 25 M⁻¹ s⁻¹ | 10 M⁻¹ s⁻¹ | 31 M⁻¹ s⁻¹ | 64 M⁻¹ s⁻¹ |  | 10 M⁻¹ s⁻¹ |  |
| N=C(N)SCCCOc1oc(=O)c2cc(NC(=O)Nc3ccccc3)ccc2c1Cl | 148 min | 970 M⁻¹ s⁻¹ | 1840 M⁻¹ s⁻¹ | 720 M⁻¹ s⁻¹ | 7720 M⁻¹ s⁻¹ | 50 M⁻¹ s⁻¹ | 110 M⁻¹ s⁻¹ |  |
| N=C(N)SCCOc1oc(=O)c2cc(NC(=O)NCc3ccccc3)ccc2c1Cl |  | 16800 M⁻¹ s⁻¹ | 11700 M⁻¹ s⁻¹ | 1810 M⁻¹ s⁻¹ | 45000 M⁻¹ s⁻¹ | 2340 M⁻¹ s⁻¹ | 2320 M⁻¹ s⁻¹ | APTT [8]: >120 s; APTT [9]: 60.1 s; PT [10]: 31.1 s; APTT [11]: 115.4 s; K obs / 1 [7]: 105000 M⁻¹ s⁻¹ |
| N=C(N)SCCOc1oc(=O)c2cc(NC(=O)Cc3ccccc3)ccc2c1Cl |  | 15800 M⁻¹ s⁻¹ | 6730 M⁻¹ s⁻¹ | 1100 M⁻¹ s⁻¹ | 59000 M⁻¹ s⁻¹ | 3630 M⁻¹ s⁻¹ | 2620 M⁻¹ s⁻¹ |  |
| CC(C)NC(=O)Nc1ccc2c(Cl)c(OCCSC(=N)N)oc(=O)c2c1 |  | 4100 M⁻¹ s⁻¹ | 5000 M⁻¹ s⁻¹ |  |  |  |  |  |
